In article PMC7673538 (PLoS Biology, 2020):
“And” between values parts separate entries of the source, which are not always exact repeats. Equal values may be shown once. Read-outs that look alike come from different tables or passages of the source.

Assays:
HRV-A2 [1] = test: microbe, parasite or virus in culture; format: cell-based, human rhinovirus; details: Human rhinovirus sp., HRVA2, HeLa R19, read-out: EC50 HRV-A2
CV-A24 = test: microbe, parasite or virus in culture; format: cell-based, coxsackievirus A24
CV-B3 (strain Nancy) = format: cell-based, coxsackievirus B3
in vitro [2] = details: monkey
EV-A71 (strain BrCr) = format: cell-based, enterovirus A71
EV-D68 (strain Fermon) = format: cell-based, enterovirus D68
human NET = molecular target: T1, human NET (Homo sapiens, UniProt P23975); format: cell-based; details: for NET, Mean (Figure 8B): Control = 100; for NET, Mean as % (Figure 8B): Control = 100%
T1 construct: expressed in transfected cells; host or cells: HEK293 (gift of Dr. Hoener, F. Hoffmann-La Roche)
T1 sequence (P23975 whole entry): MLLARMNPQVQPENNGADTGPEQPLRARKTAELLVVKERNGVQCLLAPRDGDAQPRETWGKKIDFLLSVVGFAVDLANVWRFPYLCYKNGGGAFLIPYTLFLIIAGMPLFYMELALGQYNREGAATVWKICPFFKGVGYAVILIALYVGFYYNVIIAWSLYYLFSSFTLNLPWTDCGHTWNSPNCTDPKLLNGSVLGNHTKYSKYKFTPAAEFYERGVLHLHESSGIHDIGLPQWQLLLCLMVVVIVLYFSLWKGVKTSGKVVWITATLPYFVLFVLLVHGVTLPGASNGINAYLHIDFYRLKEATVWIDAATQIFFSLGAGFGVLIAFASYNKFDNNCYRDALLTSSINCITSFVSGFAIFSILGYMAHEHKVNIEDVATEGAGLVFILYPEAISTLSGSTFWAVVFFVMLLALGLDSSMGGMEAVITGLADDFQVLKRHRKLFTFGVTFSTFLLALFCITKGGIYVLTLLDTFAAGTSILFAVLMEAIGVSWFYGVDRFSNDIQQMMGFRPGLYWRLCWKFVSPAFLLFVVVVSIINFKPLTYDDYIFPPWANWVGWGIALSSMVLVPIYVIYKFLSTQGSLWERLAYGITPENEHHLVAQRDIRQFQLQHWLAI

HRV-B14 = format: cell-based, human rhinovirus
CV-A24v = test: microbe, parasite or virus in culture; format: cell-based, coxsackievirus A24v
HRV-A2 [3] = format: cell-based, human rhinovirus
in vitro [4] = details: human

O=C(c1ccco1)N(Cc1ccc(C(F)(F)F)cc1)c1ccccc1 [Compound 19d, N-phenyl-N-(4-(trifluoromethyl)benzyl)furan-2-carboxamide]
EC50 (HRV-A2 [1]): 15.2 ± 1.13 µM
EC50 (CV-A24; Enterovirus C, CVA24, HeLa R19, read-out: EC50 CV-A24): 19.5 ± 0.55 µM
EC50 (CV-A24; Enterovirus C, CVA24, HeLa R19, read-out: EC50 CV-A24 strain Joseph): 18.7 ± 0.67 µM
EC50 (CV-A24; Enterovirus C, CVA24, HeLa R19, read-out: EC50 Exp1): 19 µM
EC50 (CV-A24; Enterovirus C, CVA24, HeLa R19, read-out: EC50 Exp2): 20.1 µM
EC50 (CV-A24; read-out: EC50 Exp1): 18 µM
EC50 (CV-A24; read-out: EC50 Exp2): 19.3 µM
virus titer, TCID50/ml (Figure 2A) (CV-B3 (strain Nancy); compound concentration 10 µM): 2187.76 TCID50/ml and 1625.6 TCID50/ml
virus titer, TCID50/ml (Figure 2A) (CV-B3 (strain Nancy); compound concentration 30 µM): 2187.76 TCID50/ml and 1479.11 TCID50/ml
CC50 (in vitro [2]; CC50): 92.6 ± 1.51 µM
CC50 (in vitro [2]; CC50 BGM Average): 92.6 µM
CC50 (in vitro [2]; Exp 1 CC50 BGM): 91.1 µM
CC50 (in vitro [2]; Exp 2 CC50 BGM): 94.1 µM
cytotoxicity (in words) (HeLa R19 cells): very minimal cytotoxicity
virus titer, TCID50/ml (Figure 2A) (EV-A71 (strain BrCr); compound concentration 10 µM): 316.228 TCID50/ml
virus titer, TCID50/ml (Figure 2A) (EV-A71 (strain BrCr); compound concentration 30 µM): 316.228 TCID50/ml
virus titer, TCID50/ml (Figure 2A) (EV-A71 (strain BrCr); compound concentration 100 µM): 316.228 TCID50/ml
virus titer, TCID50/ml (Figure 2A) (EV-A71 (strain BrCr); compound concentration 150 µM): 316.228 TCID50/ml
virus titer, TCID50/ml (Figure 2A) (EV-D68 (strain Fermon); compound concentration 0.01 µM): 6000000 TCID50/ml and 4677352 TCID50/ml and 3162278 TCID50/ml
virus titer, TCID50/ml (Figure 2A) (EV-D68 (strain Fermon); compound concentration 0.1 µM): 5888437 TCID50/ml and 6000000 TCID50/ml and 3162278 TCID50/ml
virus titer, TCID50/ml (Figure 2A) (EV-D68 (strain Fermon); compound concentration 0.3 µM): 6000000 TCID50/ml and 3548134 TCID50/ml
virus titer, TCID50/ml (Figure 2A) (EV-D68 (strain Fermon); compound concentration 10 µM): 31622.8 TCID50/ml and 21379.6 TCID50/ml and 35481.3 TCID50/ml
NET, Mean (Figure 8B) (human NET; 1µM): 125.873
NET, Mean as % (Figure 8B) (human NET; 1µM): 126%
NET, Mean (Figure 8B) (human NET; 100µM): 118.011
NET, Mean as % (Figure 8B) (human NET; 100µM): 118%
inhibition of NET function (in words) (human NET; HEK293 cells expressing human NET, 1 μM or 100 μM): neither 12a, 19b, 19d, nor the combined compound 12b inhibited
virus titer, TCID50/ml (Figure 2A) (HRV-B14; compound concentration 0.001 µM): 13548130 TCID50/ml and 11698240 TCID50/ml
virus titer, TCID50/ml (Figure 2A) (HRV-B14; compound concentration 0.01 µM): 16982410 TCID50/ml and 30000000 TCID50/ml and 31612280 TCID50/ml
virus titer, TCID50/ml (Figure 2A) (HRV-B14; compound concentration 0.1 µM): 13548130 TCID50/ml and 11698240 TCID50/ml
virus titer, TCID50/ml (Figure 2A) (HRV-B14; compound concentration 0.3 µM): 13548130 TCID50/ml and 11698240 TCID50/ml
virus titer, TCID50/ml (Figure 2A) (HRV-B14; compound concentration 1 µM): 348134 TCID50/ml and 316228 TCID50/ml and 354813 TCID50/ml
EC50 (CV-A24v; Coxsackievirus, HeLa R19, read-out: EC50 Average): 18.6 µM
EC50 (CV-A24v; Coxsackievirus, HeLa R19, read-out: EC50 CV-A24v strain 110386): 15.7 ± 1.32 µM
EC50 (CV-A24v; Coxsackievirus, HeLa R19, read-out: EC50 CV-A24v strain 110389): 18.6 ± 0.44 µM
EC50 (CV-A24v; Coxsackievirus, HeLa R19, read-out: EC50 CV-A24v strain 110390): 16.8 ± 0.33 µM
EC50 (CV-A24v; Coxsackievirus, HeLa R19, read-out: EC50 CV-A24v strain 110392): 19.1 ± 0.97 µM
EC50 (CV-A24v; Coxsackievirus, HeLa R19, read-out: EC50 Exp1): 17 µM
EC50 (CV-A24v; Coxsackievirus, HeLa R19, read-out: EC50 Exp2): 14.3 µM
EC50 (CV-A24v; read-out: EC50 Average): 16.8 µM
EC50 (CV-A24v; read-out: EC50 Exp1): 18.1 µM and 17.1 µM and 20 µM
EC50 (CV-A24v; read-out: EC50 Exp2): 19 µM and 16.4 µM and 18.1 µM
virus titer, TCID50/ml (Figure 2A) (HRV-A2 [3]; compound concentration 0.01 µM): 354813 TCID50/ml
virus titer, TCID50/ml (Figure 2A) (HRV-A2 [3]; compound concentration 1 µM): 169824 TCID50/ml and 188844 TCID50/ml
virus titer, TCID50/ml (Figure 2A) (HRV-A2 [3]; compound concentration 3 µM): 354813 TCID50/ml and 588844 TCID50/ml
virus titer, TCID50/ml (Figure 2A) (HRV-A2 [3]; compound concentration 30 µM): 1316.23 TCID50/ml and 1316 TCID50/ml
CC50 (in vitro [4]; CC50 Average): > 30 µM
CC50 (in vitro [4]; CC50 HelaR19 Average): 93.7 µM
CC50 (in vitro [4]; Exp 1 CC50): > 30 µM
CC50 (in vitro [4]; Exp 1 CC50 HelaR19): 92.3 µM
CC50 (in vitro [4]; Exp2 CC50): > 30 µM
CC50 (in vitro [4]; Exp 2 CC50 HelaR19): 95 µM
